{
  "source": "patent EP2084544B1",
  "about": "“STABLE STANDARDS FOR BNP IMMUNOASSAYS” (Hytest Ltd., priority 2006, dated 2011)",
  "test": "Stability of BNP immunoreactivity of antigens incubated in pooled human citrate plasma, measured by sandwich immunofluorometric assay (MAbs 50E1 / 24C5-Eu)",
  "assay_type": "in vitro ADME",
  "from_the_text": "Antigens used in the studies. The antigens used in the stability studies included synthetic BNP-32 (Bachem, Bubendorf, Switzerland, cat. no. H-9060.0500), synthetic BNP-32 (Peptide Institute, Osaka, Japan, cat. no. 4212-v), recombinant proBNP (expressed in E. coli, non-glycosylated, from Hytest Ltd., Turku, Finland, 8PRO8), recombinant proBNP (expressed in eukaryotic CHO (Chinese hamster) cells and, thus, glycosylated, as described herein), and recombinant proBNP (expressed in eukaryotic HEK (human) cells and, thus, glycosylated, as described herein).\nAntigen solutions. An antigen matrix was prepared by pooling human citrate plasmas collected from healthy donors. Plasma was obtained from 15 healthy volunteers by vein puncture and mixed with 0.11 M sodium citrate tribasic in a ratio of 4:1. The crude serum:citrate was centrifuged for 30 minutes at 2000 rpm. Plasma was decanted, pooled and stored at -70°C until use. Antigen concentrations used in the studies were 6 ng/ml for recombinant proBNP expressed in CHO cells, 20 ng/ml for synthetic BNPs, 20 ng/ml for recombinant proBNP expressed in E. coli and 20 ng/ml for recombinant proBNP expressed in HEK cells. 0.1 % sodium azide was added to plasma as a preservative to prevent bacterial growth.\nIncubation at 4°C and 25°C. Antigen solutions in human plasma were incubated for different time periods (up to 96 hours) at 4°C and 25°C. Aliquots were frozen and stored at -70°C until BNP immunoreactivity was measured.\nAssays for BNP immunoreactivity. BNP immunoreactivity in the samples was determined by sandwich immunofluorometric assay utilizing two BNP-specific monoclonal antibodies (MAbs). […]\nMAb 24C5 specifically recognized and bound to peptide 11-22 of the BNP sequence and was conjugated to stable Eu^3+ chelate using conventional techniques. […] Consequently, it can be used for the quantification of whole BNP immunoreactivity, comprising both BNP and proBNP.",
  "data": [
    {"smiles": "CC[C@H](C)[C@@H]1NC(=O)[C@H](CCCNC(=N)N)NC(=O)[C@H](CC(=O)O)NC(=O)[C@H](CCSC)NC(=O)[C@H](CCCCN)NC(=O)[C@H](CCCNC(=N)N)NC(=O)CNC(=O)[C@H](Cc2ccccc2)NC(=O)[C@@H](NC(=O)CNC(=O)[C@H](CO)NC(=O)CNC(=O)[C@H](CCC(N)=O)NC(=O)[C@@H](NC(=O)[C@H](CCSC)NC(=O)[C@H](CCCCN)NC(=O)[C@@H]2CCCN2C(=O)[C@@H](N)CO)C(C)C)CSSC[C@@H](C(=O)N[C@@H](CCCCN)C(=O)N[C@H](C(=O)N[C@@H](CC(C)C)C(=O)N[C@@H](CCCN=C(N)N)C(=O)N[C@@H](CCCN=C(N)N)C(=O)N[C@@H](Cc2cnc[nH]2)C(=O)O)C(C)C)NC(=O)CNC(=O)[C@H](CC(C)C)NC(=O)CNC(=O)[C@H](CO)NC(=O)[C@H](CO)NC(=O)[C@H](CO)NC(=O)[C@H](CO)NC1=O", "note": "[Synthetic BNP-32]", "values": [
      {"measurement": "immunoreactivity detected after incubation (in words)", "setting": "96 hours of incubation at 4°C", "value": "Almost no immunoreactivity"},
      {"measurement": "immunoreactivity detected after incubation (in words)", "setting": "96 hours of incubation at 25°C", "value": "Almost no immunoreactivity"},
      {"measurement": "stability among the tested protein forms displaying BNP immunoreactivity (rank in words)", "setting": "incubation up to 96 hours at 4°C and 25°C", "value": "worst stability"}
    ]}
  ]
}
